“And” between values parts separate entries of the source, which are not always exact repeats. Equal entries are not always repeated. Toxic doses and inconclusive results are not listed. Cut-off read from the data, not from the text of the source: active = T/C of 150% or more; inactive = T/C below 125%. Peptide text beside a SMILES is read from it. * marks the point of attachment. Cbz = O=C(OCc1ccccc1)*
Test system: L1210 leukemia ip in BDF1 mice, survival T/C
Test: NCI In Vivo Anticancer Drug Screen. Data for tumor model L1210 Leukemia (intraperitoneal) in B6D2F1 (BDF1) mice
Settings: endpoint: mean survival time, higher = longer survival
Summary of the method: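 Ratio derived from survival: compound-dosed mice over vehicle-dosed mice, all bearing a transplantable tumor.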

[1] = dose: 100.0 mg/kg/injection, schedule: Q01DX001 (ip), vehicle: saline
[2] = dose: 100.0 mg/kg/injection, schedule: Q04DX003 (ip), vehicle: saline
[3] = dose: 200.0 mg/kg/injection, schedule: Q01DX001 (ip), vehicle: saline
[4] = dose: 200.0 mg/kg/injection, schedule: Q04DX003 (ip), vehicle: saline
[5] = dose: 50.0 mg/kg/injection, schedule: Q01DX009 (ip), vehicle: Klucel (hydroxypropylcellulose) (HPC)
[6] = dose: 100.0 mg/kg/injection, schedule: Q01DX009 (ip), vehicle: Klucel (hydroxypropylcellulose) (HPC)
[7] = dose: 200.0 mg/kg/injection, schedule: Q01DX009 (ip), vehicle: Klucel (hydroxypropylcellulose) (HPC)
[8] = dose: 400.0 mg/kg/injection, schedule: Q01DX009 (ip), vehicle: Klucel (hydroxypropylcellulose) (HPC)
[9] = dose: 100.0 mg/kg/injection, schedule: Q04DX003 (ip), vehicle: Klucel (hydroxypropylcellulose) (HPC)
[10] = dose: 200.0 mg/kg/injection, schedule: Q04DX003 (ip), vehicle: Klucel (hydroxypropylcellulose) (HPC)
[11] = dose: 400.0 mg/kg/injection, schedule: Q04DX003 (ip), vehicle: Klucel (hydroxypropylcellulose) (HPC)
[12] = dose: 25.0 mg/kg/injection, schedule: Q04DX002 (ip), vehicle: Klucel (hydroxypropylcellulose) (HPC)
[13] = dose: 50.0 mg/kg/injection, schedule: Q04DX002 (ip), vehicle: Klucel (hydroxypropylcellulose) (HPC)
[14] = dose: 100.0 mg/kg/injection, schedule: Q04DX002 (ip), vehicle: Klucel (hydroxypropylcellulose) (HPC)
[15] = dose: 200.0 mg/kg/injection, schedule: Q04DX002 (ip), vehicle: Klucel (hydroxypropylcellulose) (HPC)

Measured: T/C

CC(C)NNC(=O)c1cccnc1
inactive: dose: 25.0 mg/kg/injection, schedule: Q01DX009 (ip), vehicle: saline 97 % of control and 108 % of control | dose: 50.0 mg/kg/injection, schedule: Q01DX009 (ip), vehicle: saline 94 % of control and 103 % of control | [1] 95 % of control | [2] 96 % of control | [3] 96 % of control | dose: 200.0 mg/kg/injection, schedule: Q01DX009 (ip), vehicle: saline 94 % of control | [4] 98 % of control | dose: 400.0 mg/kg/injection, schedule: Q01DX001 (ip), vehicle: saline 95 % of control | dose: 400.0 mg/kg/injection, schedule: Q04DX003 (ip), vehicle: saline 96 % of control

NNc1ccccc1Br
inactive: [2] 101 % of control | [4] 102 % of control

C/C(=N\Nc1nc2ccccc2s1)c1ccncc1
inactive: [5] 101 % of control | [6] 100 % of control | [7] 107 % of control | [8] 101 % of control

N#CSCc1c(Cl)c(Cl)c(CSC#N)c(Cl)c1Cl
inactive: dose: 75.0 mg/kg/injection, schedule: Q01DX009 (ip), vehicle: saline 96 % of control | dose: 150.0 mg/kg/injection, schedule: Q01DX009 (ip), vehicle: saline 94 % of control | dose: 300.0 mg/kg/injection, schedule: Q01DX009 (ip), vehicle: saline 93 % of control

CC(=O)c1c(O)c(Br)c(C)oc1=O
inactive: dose: 6.25 mg/kg/injection, schedule: Q01DX009 (ip), vehicle: Klucel (hydroxypropylcellulose) (HPC) 100 % of control | dose: 12.5 mg/kg/injection, schedule: Q01DX009 (ip), vehicle: Klucel (hydroxypropylcellulose) (HPC) 96 % of control | dose: 25.0 mg/kg/injection, schedule: Q01DX009 (ip), vehicle: Klucel (hydroxypropylcellulose) (HPC) 93 % of control | [5] 89 % of control

CCOC(=O)C(C#N)c1ccccc1 (stereo unspecified)
inactive: dose: 50.0 mg/kg/injection, schedule: Q01DX001 (ip), vehicle: saline 96 % of control | [1] 100 % of control | [3] 100 % of control

c1ccc(C[Se]Cc2ccccc2)cc1
inactive: dose: 100.0 mg/kg/injection, schedule: Q04DX003 (ip), vehicle: other 92 % of control

Cc1n(-c2ccccc2)c2c([n+]1Cc1ccc([N+](=O)[O-])cc1)C(=O)c1ccccc1C2=O
inactive: dose: 5.0 mg/kg/injection, schedule: Q01DX001 (ip), vehicle: other 106 % of control | dose: 10.0 mg/kg/injection, schedule: Q01DX001 (ip), vehicle: other 101 % of control | dose: 20.0 mg/kg/injection, schedule: Q01DX001 (ip), vehicle: other 93 % of control | dose: 40.0 mg/kg/injection, schedule: Q01DX001 (ip), vehicle: other 95 % of control

O=COCCc1ccccc1
inactive: [6] 102 % of control | [7] 102 % of control | [8] 97 % of control

CC(=O)OCCC/C(=C\c1ccc(N(C)C)cc1)[N+](=O)[O-]
inactive: dose: 100.0 mg/kg/injection, schedule: Q01DX001 (ip), vehicle: carboxymethylcellulose (CMC) 91 % of control | dose: 200.0 mg/kg/injection, schedule: Q01DX001 (ip), vehicle: carboxymethylcellulose (CMC) 91 % of control | dose: 400.0 mg/kg/injection, schedule: Q01DX001 (ip), vehicle: carboxymethylcellulose (CMC) 98 % of control

CCOC(=O)CNC(=O)C(CC(C)C)NC(=O)C1CCCN1C(=O)OCc1ccccc1 (stereo not drawn) (Cbz-Pro-Leu-Gly-OEt; configuration not given here)
inactive: [6] 105 % of control | [9] 107 % of control | [7] 89 % of control | [10] 93 % of control | [8] 110 % of control | [11] 98 % of control

COc1ccc(S(=O)(=O)NC(=O)NCC=C(C)C)cc1
inactive: [5] 98 % of control | [6] 98 % of control | [9] 93 % of control | [7] 96 % of control | [10] 103 % of control | [11] 94 % of control

CCOc1ccc(NC(=O)NCCBr)cc1
inactive: dose: 50.0 mg/kg/injection, schedule: Q01DX009 (ip), vehicle: saline with Tween-80 94 % of control | dose: 100.0 mg/kg/injection, schedule: Q01DX009 (ip), vehicle: saline with Tween-80 94 % of control

Cc1ccc(C/C(Cc2ccccc2)=N/O)cc1
inactive: [12] 101 % of control | [13] 111 % of control | [14] 93 % of control | dose: 100.0 mg/kg/injection, schedule: Q04DX002 (ip), vehicle: saline 111 % of control | [15] 108 % of control | dose: 200.0 mg/kg/injection, schedule: Q04DX002 (ip), vehicle: saline 97 % of control | dose: 400.0 mg/kg/injection, schedule: Q04DX002 (ip), vehicle: saline 87 % of control

NC(=O)/C(=C\c1ccc([N+](=O)[O-])o1)c1ccco1
inactive: dose: 55.0 mg/kg/injection, schedule: Q01DX Z (ip), vehicle: methylcellulose (MC) 93 % of control | dose: 83.0 mg/kg/injection, schedule: Q01DX Z (ip), vehicle: methylcellulose (MC) 98 % of control | dose: 125.0 mg/kg/injection, schedule: Q01DX Z (ip), vehicle: methylcellulose (MC) 100 % of control

CSc1ccc(NC(=O)SCc2ccccc2)cc1
inactive: [6] 97 % of control | [7] 95 % of control | [8] 95 % of control

O=C1/C(=C\c2ccc([N+](=O)[O-])cc2)N2CCC1CC2
inactive: [14] 102 % of control | [15] 94 % of control | dose: 400.0 mg/kg/injection, schedule: Q04DX002 (ip), vehicle: Klucel (hydroxypropylcellulose) (HPC) 105 % of control

CC(C(=O)O)N(CC(=O)O)CC(=O)O.[Co+2].[NH-]CC(=O)O (stereo unspecified)
inactive: dose: 6.25 mg/kg/injection, schedule: Q01DX009 (ip), vehicle: water 106 % of control and 89 % of control | dose: 12.5 mg/kg/injection, schedule: Q01DX009 (ip), vehicle: water 93 % of control and 106 % of control and 124 % of control | dose: 25.0 mg/kg/injection, schedule: Q01DX009 (ip), vehicle: water 102 % of control and 109 % of control | dose: 50.0 mg/kg/injection, schedule: Q01DX009 (ip), vehicle: water 109 % of control and 114 % of control | dose: 100.0 mg/kg/injection, schedule: Q04DX003 (ip), vehicle: water 107 % of control | dose: 200.0 mg/kg/injection, schedule: Q04DX003 (ip), vehicle: water 105 % of control

CN1C(=S)SC(c2ccccc2)N(C)C1c1ccccc1 (stereo unspecified)
inactive: [5] 101 % of control | [6] 98 % of control | [9] 89 % of control | [7] 106 % of control | [10] 89 % of control | [11] 86 % of control

O=C(O)C12CCC(CC1)C1CCC2CC1
inactive: dose: 12.5 mg/kg/injection, schedule: Q04DX002 (ip), vehicle: Klucel (hydroxypropylcellulose) (HPC) 101 % of control | [12] 105 % of control | [13] 116 % of control

CCCCCCCCCCCCC[n+]1cccc(C#N)c1
inactive: dose: 5.0 mg/kg/injection, schedule: Q04DX003 (ip), vehicle: saline 100 % of control | dose: 10.0 mg/kg/injection, schedule: Q01DX001 (ip), vehicle: saline 94 % of control | dose: 10.0 mg/kg/injection, schedule: Q04DX003 (ip), vehicle: saline 96 % of control | dose: 20.0 mg/kg/injection, schedule: Q01DX001 (ip), vehicle: saline 103 % of control | dose: 20.0 mg/kg/injection, schedule: Q04DX003 (ip), vehicle: saline 96 % of control
